{
  "source": "patent US4734275A",
  "about": "“Anti-curare agents” (priority 1986, dated 1988)",
  "key": {"[1]": {"tested_on": "anticholinesterase activity", "details": "background; cited from earlier work"}, "[2]": {"details": "background; Marshall 1982; cited from earlier work"}, "[3]": {"tested_on": "neuromuscular blocks", "details": "background; Bowman and Savage 1981; Agoston et al. 1978; cited from earlier work"}, "[4]": {"tested_on": "sciatic nerve-tibialis anterior muscle preparations", "assay": "Antagonism of relaxant-induced neuromuscular block in vivo, rat sciatic nerve-tibialis anterior muscle", "design": "species or system male Sprague-Dawley rats", "details": "for ED50: Rattus norvegicus, iv, read-out: ED 50 of Antagonists, In Vivo; for ED50 / ED 50 of Antagonists, In Vivo: i.v., means + SEM of 4 experiments, dose raising twitch tension to 50% of control in >90% steady state block; for Relative Molar Potency, In Vivo: 4-Aminopyridine = 1.0", "text": "(§1) In in vitro tests to determine neuromuscular potency, phrenic nerve-hemidiaphragm preparations from male Sprague-Dawley rats were suspended in modified Krebs solution. In vivo experiments focused on the sciatic nerve-tibialis anterior muscle preparations in male Sprague-Dawleyrats. In each case, stimulation of nerves was accomplished via bipolar platinum electrodes, with supramaximal impulses of 0.2 msec duration at 0.1 HZ, and the isometric twitches were continuously recorded. Greater than 90 % steady state neuromuscular block was achieved either by addition of appropriate concentrations (in vitro) or continuous i.v. infusions (in vivo) of either d-tubocurarine or pancuronium. Antagonism of the induced neuromuscular block was accomplished by the addition of increments of 4-AP, 3,4-DAP, LF-10 or LF-14.\n(§2) **The concentration in vitro or the i.v. dose that will increase twitch\n(§3) tension to 50% of control in the presence of the concentration or dose of\n(§4) muscle relaxant that caused a >90% steady state block."}, "[5]": {"tested_on": "central nervous system", "assay": "Central nervous system stimulatory effects: pentobarbital-induced loss of righting reflex (LRR)", "assay_type": "in vivo, male Sprague-Dawley rats", "details": "for Loss of righting reflex, Onset / Loss of righting reflex, Duration: with 35 mg/kg pentobarbital s.c., LF-10, LF-14 1.1 mg/kg, 4-AP, 3,4-DAP 1.5 mg/kg, mean; for Loss of righting reflex, Onset: control 11.4; for Loss of righting reflex, Duration: control 71.9; for effect on pentobarbital induced LRR / barbiturate CNS effects (in words): with pentobarbital 35 mg/kg s.c.", "description": "Tests were conducted to determine the stimulatory effects of the compounds of the present invention upon the central nervous system. Male Sprague-Dawley rats were injected subcutaneously with 35 mg/kg of pentobarbital alone, or together with 1.1 mg/kg of LF-10 or LF-14, or 1.5 mg/kg of 4-AP or 3,4-DAP (Foldes, et al., Anesthesiology 57:A-273, 1982). The time of onset and duration of the loss of righting reflex (LRR) was observed."}, "[6]": {"tested_on": "phrenic nerve-hemidiaphragm preparations", "assay": "Antagonism of relaxant-induced neuromuscular block in vitro, rat phrenic nerve-hemidiaphragm", "assay_type": "cell-based, male Sprague-Dawley rats", "design": "ED 50 of Antagonists, In Vitro: unit not given here", "details": "for Relative Molar Potency, In Vitro: 4-Aminopyridine = 1.0; for ED 50 of Antagonists, In Vitro: means + SEM of 4 experiments, concentration raising twitch tension to 50% of control in >90% steady state block", "text": "as §1, §2, §3, §4"}, "[7]": {"details": "molar basis, nondepolarizing muscle relaxants"}, "[8]": {"details": "neuromuscular blocks induced by curare"}},
  "note": "Where two headings read alike, the source gives them in different places.",
  "data": [
    {"molecule": "Nc1ccncc1", "note": "[4-Aminopyridine, 4-aminopyridine, reference compound]", "values": [
      {"measurement": "anticholinesterase activity (in words)", "setting": "[1]", "value": "no anticholinesterase activity"},
      {"measurement": "undesirable side effects (in words)", "setting": "[2]", "value": "elevated blood pressure, anxiety, insomnia, and a level of central nervous system stimulation which may manifest itself ultimately in convulsions"},
      {"measurement": "reversal of muscle relaxants and antagonism of other neuromuscular blocks (in words)", "setting": "[3]", "value": "not only reverse the side effects of clinically used muscule relaxants, but also antagonize the effects of the other neuromuscular blocks listed above"},
      {"measurement": "ED50", "setting": "[4]; muscle relaxant Pancuronium", "value": 0.13, "unit": "mg/kg"},
      {"measurement": "ED50", "setting": "[4]; muscle relaxant d-Tubocurarine", "value": 0.17, "unit": "mg/kg"},
      {"measurement": "Loss of righting reflex, Onset", "setting": "[5]", "value": 15.2, "unit": "min"},
      {"measurement": "Loss of righting reflex, Duration", "setting": "[5]", "value": 42.0, "unit": "min"},
      {"measurement": "effect on pentobarbital induced LRR / barbiturate CNS effects (in words)", "setting": "[5]", "value": "significantly (p<0.001) reduce the central nervous system effects of barbiturates"}
    ]},
    {"molecule": "1,1-dimethyl-(3,4-pyridyl)-urea [LF-10]", "values": [
      {"measurement": "Relative Molar Potency, In Vivo", "setting": "[4]; muscle relaxant Pancuronium", "value": 2.3},
      {"measurement": "ED 50 of Antagonists, In Vivo", "setting": "[4]; muscle relaxant Pancuronium", "value": "0.13 + 0.00 mg/Kg"},
      {"measurement": "Relative Molar Potency, In Vivo", "setting": "[4]; muscle relaxant d-Tubocurarine", "value": 7.5},
      {"measurement": "ED 50 of Antagonists, In Vivo", "setting": "[4]; muscle relaxant d-Tubocurarine", "value": "0.09 + 0.00 mg/Kg"},
      {"measurement": "Relative Molar Potency, In Vitro", "setting": "[6]; muscle relaxant Pancuronium", "value": 3.4},
      {"measurement": "ED 50 of Antagonists, In Vitro", "setting": "[6]; muscle relaxant Pancuronium", "value": 0.5},
      {"measurement": "Relative Molar Potency, In Vitro", "setting": "[6]; muscle relaxant d-Tubocurarine", "value": 4.3},
      {"measurement": "ED 50 of Antagonists, In Vitro", "setting": "[6]; muscle relaxant d-Tubocurarine", "value": 0.4},
      {"measurement": "Loss of righting reflex, Onset", "setting": "[5]", "value": 14.8, "unit": "min"},
      {"measurement": "Loss of righting reflex, Duration", "setting": "[5]", "value": 63.7, "unit": "min"},
      {"measurement": "effect on pentobarbital induced LRR / barbiturate CNS effects (in words)", "setting": "[5]", "value": "some effect on shortening the duration of LRR"}
    ]},
    {"molecule": "Nc1ccncc1N", "note": "[3,4-Diaminopyridine, 3,4-diaminopyridine, reference compound]", "values": [
      {"measurement": "ED50", "setting": "[4]; muscle relaxant Pancuronium", "value": 0.18, "unit": "mg/kg"},
      {"measurement": "ED50", "setting": "[4]; muscle relaxant d-Tubocurarine", "value": 0.12, "unit": "mg/kg"},
      {"measurement": "Relative Molar Potency, In Vivo", "setting": "[4]; muscle relaxant Pancuronium", "value": 0.8},
      {"measurement": "Relative Molar Potency, In Vivo", "setting": "[4]; muscle relaxant d-Tubocurarine", "value": 1.6},
      {"measurement": "Relative Molar Potency, In Vitro", "setting": "[6]; muscle relaxant Pancuronium", "value": 2.7},
      {"measurement": "Relative Molar Potency, In Vitro", "setting": "[6]; muscle relaxant d-Tubocurarine", "value": 2.1},
      {"measurement": "Loss of righting reflex, Onset", "setting": "[5]", "value": 13.3, "unit": "min"},
      {"measurement": "Loss of righting reflex, Duration", "setting": "[5]", "value": 78.9, "unit": "min"}
    ]},
    {"molecule": "CN(C)C(=O)Nc1cnccc1N", "note": "[LF-14, 1,1-Dimethyl-3-(4-amino-3-pyridyl)-urea]", "values": [
      {"measurement": "ED50", "setting": "[4]; muscle relaxant Pancuronium", "value": 0.04, "unit": "mg/kg"},
      {"measurement": "ED50", "setting": "[4]; muscle relaxant d-Tubocurarine", "value": 0.04, "unit": "mg/kg"},
      {"measurement": "neuromuscular potency / antagonism (in words), in vivo", "setting": "[4]; [7]", "value": "greatest both in vitro and in vivo"},
      {"measurement": "Relative Molar Potency, In Vivo", "setting": "[4]; muscle relaxant Pancuronium", "value": 8.2},
      {"measurement": "Relative Molar Potency, In Vivo", "setting": "[4]; muscle relaxant d-Tubocurarine", "value": 9},
      {"measurement": "molar potency relative to 4-AP, in vivo", "setting": "[4]; [8]", "value": "9 times that of 4-AP"},
      {"measurement": "neuromuscular potency / antagonism (in words), in vitro", "setting": "[6]; [7]", "value": "greatest both in vitro and in vivo"},
      {"measurement": "Relative Molar Potency, In Vitro", "setting": "[6]; muscle relaxant Pancuronium", "value": 17},
      {"measurement": "Relative Molar Potency, In Vitro", "setting": "[6]; muscle relaxant d-Tubocurarine", "value": 17},
      {"measurement": "molar potency relative to 4-AP, in vitro", "setting": "[6]; [8]", "value": "17 times that of 4-AP"},
      {"measurement": "stimulatory effects on the central nervous system (in words)", "setting": "[5]; rat, in vivo", "value": "no stimulatory effects on the central nervous system"},
      {"measurement": "Loss of righting reflex, Onset", "setting": "[5]", "value": 12.4, "unit": "min"},
      {"measurement": "Loss of righting reflex, Duration", "setting": "[5]", "value": 75.7, "unit": "min"},
      {"measurement": "effect on pentobarbital induced LRR / barbiturate CNS effects (in words)", "setting": "[5]", "value": "substantially no effect on the pentobarbital induced LRR"}
    ]}
  ]
}
